This note sets out measurements from patent US10800730B2, “Complex and structurally diverse compounds” (The Board of Trustees of the University of Illinois, priority 2012, dated 2020).

Experiment [1] deals with MCF7 (breast). Description: 72-hour IC50 toward MCF7 cancer cell line. Format: cell-based. Particulars: Homo sapiens. From the text:
(§1) Compounds prepared according to the methods described herein have been screened for activity against various cancer cell lines.

Experiment [2] concerns U-937 cells. Description: Non-apoptotic cell death of U-937 cells. The note with it: U-937 cells (FIG. 12). Format: cell-based. An excerpt:
FIG. 12. Non-apoptotic cell death of U-937 cells by compound GA-4.

In experiment [3] the test system is HeLa (cervical). Nature of the experiment: 72-hour IC50 toward HeLa cancer cell line. It is filed as cell-based. The note with it: Homo sapiens.
Excerpt: as §1

In experiment [4] the test system is EL-4 (lymphoma). Nature of the experiment: 72-hour IC50 toward EL-4 cancer cell line. Format: cell-based.
Excerpt: as §1

For experiment [5], the system named is caspase. Description: Western blot for caspase activation. It is filed as cell-based. The note with it: Western blot (FIG. 11). (In general: A western blot detects proteins with antibodies after separation by electrophoresis.)
The subject of experiment [6] is B16F10 (melanoma). Description: 72-hour IC50 toward B16F10 cancer cell line. It is filed as cell-based. Particulars: Mus musculus, B16-F10.
Excerpt: as §1

The test system of experiment [7] is U-937 (lymphoma). Nature of the experiment: 72-hour IC50 toward U-937 cancer cell line. Particulars: Homo sapiens. It is filed as cell-based.
Excerpt: as §1

Experiment [8] relates to H1299 (NSC lung). Description: 72-hour IC50 toward H1299 cancer cell line. Format: cell-based. The note with it: Homo sapiens, NCI-H1299.
Excerpt: as §1

Experiment [9] has as its system A549 (lung). Nature of the experiment: 72-hour IC50 toward A549 cancer cell line. It is filed as cell-based. Particulars: Homo sapiens.
Excerpt: as §1

The test system of experiment [10] is EL-4 syngeneic mouse model. Description: Tumor volume in EL-4 syngeneic mouse model. Format: in vivo. Particulars: 2 treatments at 30 mg/kg over one week and a final treatment at 20 mg/kg after the first week, p=0.023, n=8.

Molecules are shown by their SMILES.

In general, IC50 refers to the concentration needed to halve the response being measured. Read a high IC50 as weaker potency.

Take `C=C1C[C@]23C[C@@]1(O)CC[C@H]2[C@@]12C=CC(=O)C(C)(C(=O)O1)[C@H]2[C@@H]3C(=O)OC` [GA-4]: the IC50 amounted to 4800 ± 1300 nM in [1]; 1140 ± 30 nM in experiment [3]; 850 ± 90 nM in experiment [4]; 1000 ± 400 nM in [6]; 560 ± 180 nM in [7]; 2400 ± 800 nM in [8]. Further, the midpoint of inhibition in [9], the IC50, lay at 5900 ± 50 nM. Moreover, the non-apoptotic cell death result in experiment [2] is reported as “remarkable amounts of non-apoptotic cell death”. In addition, the caspase activation result in [5] was “lack of caspase activation”. In addition, in [10], the “reduction in tumor volume” value amounted to 43%.

In the case of `COC(=O)[C@H]1[C@@H]2C3(C)C(=O)C=C[C@@]2(OC3=O)[C@@H]2CC[C@@]3(CBr)C[C@]21CC3=O` [GA-81], the IC50 in experiment [3] was 4900 ± 90 nM; in experiment [7] it was 1780 ± 90 nM; in experiment [9], 4500 ± 90 nM.
